In article doi:10.1101/2025.09.18.677102, “Genomic plasticity drives olfactory adaptation in a pest fly” (bioRxiv, 2025):

Target: T1, DsuzOr22a (Drosophila suzukii, UniProt A0AB39ZTG6)
T1 construct: gene LOC108019602; full-length cDNA in pJFRC81 (GFP removed), UAS line expressed in D. melanogaster ab3A empty neuron (Or22ab-Gal4); with Odorant receptor coreceptor (Drosophila melanogaster, endogenous to the host neuron)
T1 sequence (A0AB39ZTG6 1-397): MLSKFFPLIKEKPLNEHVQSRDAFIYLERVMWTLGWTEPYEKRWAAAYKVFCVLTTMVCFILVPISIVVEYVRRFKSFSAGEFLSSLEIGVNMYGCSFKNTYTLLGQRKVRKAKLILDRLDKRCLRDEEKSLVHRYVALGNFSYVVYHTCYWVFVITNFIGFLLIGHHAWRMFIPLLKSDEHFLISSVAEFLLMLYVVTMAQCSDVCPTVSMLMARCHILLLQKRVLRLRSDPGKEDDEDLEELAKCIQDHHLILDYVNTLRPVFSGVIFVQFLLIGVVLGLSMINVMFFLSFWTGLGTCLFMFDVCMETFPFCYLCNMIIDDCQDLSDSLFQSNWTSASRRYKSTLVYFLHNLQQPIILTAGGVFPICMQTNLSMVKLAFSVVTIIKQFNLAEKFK
T1 sequence (Q9VNB5 1-486 partner): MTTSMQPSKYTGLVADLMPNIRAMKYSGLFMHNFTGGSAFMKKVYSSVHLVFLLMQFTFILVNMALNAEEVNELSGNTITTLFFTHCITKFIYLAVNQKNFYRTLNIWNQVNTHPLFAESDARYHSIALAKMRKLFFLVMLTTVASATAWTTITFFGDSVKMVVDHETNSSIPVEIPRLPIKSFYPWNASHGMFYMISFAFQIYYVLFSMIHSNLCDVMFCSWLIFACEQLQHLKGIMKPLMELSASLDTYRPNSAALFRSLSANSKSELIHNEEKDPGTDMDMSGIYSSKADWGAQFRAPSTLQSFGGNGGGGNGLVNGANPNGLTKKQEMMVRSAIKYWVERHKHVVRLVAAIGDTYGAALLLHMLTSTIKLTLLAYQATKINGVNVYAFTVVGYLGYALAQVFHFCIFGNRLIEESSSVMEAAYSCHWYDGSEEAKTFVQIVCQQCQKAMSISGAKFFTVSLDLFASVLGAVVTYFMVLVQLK
Experiment: single sensillum recording, empty neuron
Type: cell-based
Conditions: odorant 10^-4 dilution in hexane

| SMILES | responses (spikes/s) | responses (spikes/s) (also dilution series) |
| --- | --- | --- |
| CCCCOC(C)=O [butyl acetate] | toward several ripening fruit esters such as isobutyl acetate, butyl acetate, and isoamyl acetate | – |
| CC(=O)OCCC(C)C [isoamyl acetate] | toward several ripening fruit esters such as isobutyl acetate, butyl acetate, and isoamyl acetate | – |
| CC(=O)OCC(C)C [isobutyl acetate] | – | Or22a, which has shifted its tuning toward several ripening fruit esters such as isobutyl acetate |
